From patent US10925885B2, “Thyromimetics for the treatment of fatty liver diseases” (Metabasis Therapeutics, Inc., priority 2005, dated 2021)
“Also recorded” adds a separate entry of the source.

What was measured:
liver triglycerides [1] = experiment: Liver triglycerides, chronic exposure in normal rats; assay type: in vivo, rats (Sprague-Dawley); settings: 1 mg/kg/day continuous infusion; for Triglycerides (mg/g liver): normal Sprague-Dawley rats, subcutaneous osmotic pump, one week; for Effect on liver (hepatic) triglyceride content, in words: normal rats, systemic administration
Text: The purpose of these studies was to compare the difference in efficacy to clear liver triglyceride content between T3 and various T3 mimetics that are carboxylic acids and T3 mimetics that are phosphonic acids. In one example, T3 and Compounds 7 and 17, which differ only in that for Compound 7, the X moiety of Formula II is —P(O)OH2 and for Compound 17, X is —C(O)OH, were compared. In the same example TRIAC and Compound 6, which differ only in that for Compound 6, X is —P(O)OH2 and for TRIAC, X is —C(O)OH, were compared. Efficacy was measured by analyzing total liver triglycerides.
(§1) Methods: Normal rats (Sprague-Dawley) were maintained on a standard diet. Compounds 7, 17, 6, TRIAC or T3 were administered by continuous infusion using an osmotic pump (Alzet; subcutaneous implant) at a dose of 1 mg/kg/day. The compounds were dissolved in 0.1N NaOH solution and the pH adjusted to 7.4-8.0. The compounds were brought up to an appropriate volume using PBS and BSA to maintain solubility within the pump. The compounds were chemically stable in the excipient at 37° C. for 7 days. Body weights were measured and the change from the starting body weight was calculated. The 4.5% reported for the vehicle animals represent a 4.5% increase in body weight over the course of the experiment.
(§2) Sections of liver were removed and frozen. Liver triglycerides were analyzed following lipid extraction by the Bligh Dyer method (Bligh and Dyer, Can. J. Med. Sci. 37(8):911-7 (1959), incorporated herein by reference). Total triglycerides were analyzed in the liver extracts by an enzymatic assay (Thermo Electron Corporation). Total lipid was normalized to initial liver weight and triglyceride content was normalized to liver weight mGPDH activity was analyzed in isolated mitochondria using 2-(4-iodophenyl)-3-(4-nitrophenyl)-5-phenyl tetrazolium chloride as the terminal electron acceptor (Gardner R S, Analytical Biochemistry 59:272 (1974)). Commercially available GPDH was used in each assay as a standard (Sigma, St. Louis, Mo.).

[2] = Body weight change, chronic exposure in normal rats; assay type: in vivo, rats (Sprague-Dawley); settings: 1 mg/kg/day continuous infusion; for Body Weight (% change from start): normal Sprague-Dawley rats, subcutaneous osmotic pump, one week; for Effect on body weight, in words: normal rats
Protocol: as §1

mGPDH = experiment: Liver mGPDH activity in isolated mitochondria, normal rats; assay type: in vivo; settings: normal Sprague-Dawley rats, 1 mg/kg/day continuous infusion, subcutaneous osmotic pump
Protocol: as §1, §2

liver triglycerides [3] = experiment: Liver triglycerides, chronic exposure in ob/ob mice; assay type: in vivo
Protocol: as §2
The purpose of these studies was to compare the difference in efficacy to clear liver triglyceride content between Compound cis-13-1 and T3 in ob/ob mice.
(§3) Methods: ob/ob mice were maintained on a standard diet. Compound cis-13-1 was administered at doses of 3, 10 and 30 mg/kg/d orally in a CMC suspension. T3, 100 nmole/kg/d, was administered as an aqueous solution subcutaneously. Liver triglycerides were analyzed as described in example A. Epididymal fat pads were removed and weighed. Clinical chemistry analysis was performed by LabCorp (San Diego, Calif.).

[4] = Epididymal fat pad weight in ob/ob mice; assay type: in vivo
Protocol: as §3

hepatic steatosis [5] = experiment: Hepatic steatosis measured chemically and histologically in ob/ob mice; assay type: in vivo; settings: oral administration of cis-13-1
Protocol: as §3

[6] = system: thyroid-responsive genes in the liver; settings: T3-treated vs hypothyroid mice; cited from earlier work
hepatic steatosis [7] = experiment: Liver steatosis (H&E sections) in ZDF rats; assay type: in vivo, Zucker diabetic fatty (ZDF) rats; settings: oral, CMC suspension
Protocol: Methods: ZDF rats were maintained on a standard diet (5008). Compounds cis-13-1 or 18 were administered orally at the indicated doses using a CMC suspension. Liver steatosis was analyzed visually following H&E staining of paraffin embedded liver sections. TSH was measured using a rodent specific kit (Amersham Biosciences). At the end of the experiment, the left ventricle was cannulated with a high fidelity catheter-tip transducer (Millar) via the right carotid artery. Left ventricle pressure, its first derivative (LV dP/dt), lead I ECG, and heart rate triggered off the ECG waveform, were recorded.

liver TG = settings: thyroxine treatment, cited from earlier work
[8] = T3 100 nmole/kg/d subcutaneously

With 3,3′,5′-triiodothyronine [Compound T3] the “Triglycerides (mg/g liver)” value (liver triglycerides [1]) was 3.6 ± 0.6 mg/g liver, the “Effect on liver (hepatic) triglyceride content, in words” value (from here on “Effect on liver”) (liver triglycerides [1]; 1 mg/kg/day) was “did not demonstrate a decrease in hepatic triglyceride content; also recorded: did not significantly decrease liver triglyceride content” and the “Body Weight (% change from start)” value [2] was −8.2 ± 1.5 % change from start. For the same compound, the “Effect on body weight, in words” value ([2]; 1 mg/kg/day) was “decreased body weight; also recorded: loss of body weight”, the “Liver mGPDH activity (% vehicle)” value (mGPDH) was 406 ± 54 % vehicle and the “Liver Trigs” value (liver triglycerides [3]; [8]) was 86 ± 5 mg/g. For the same compound, the “Effect on liver” value (liver triglycerides [3]; cis-13-1 oral 3, 10, 30 mg/kg/d, T3 100 nmole/kg/d s.c.) was “did not significantly decrease liver triglyceride content”, the “EFP weight” value [4, 8] was 2.0 ± 0.1 g and the “Effect on epididymal fat pad (EFP) weight, in words” value ([4]; cis-13-1 oral, T3 100 nmole/kg/d s.c.) was “significantly decreased EFP weight; also recorded: significantly decreased epididymal fat pad weight”. The “Effect on hepatic steatosis measured chemically and histologically, in words” value (hepatic steatosis [5]) was “no significant effect on hepatic steatosis”, the “Fold, AM2 receptor” value [6] was 0.3 Fold and the “Fold, Actin, α cardiac” value [6] was 0.3 Fold. For the same compound, the “Fold, Actin, γ-enteric smooth muscle” value [6] was 0.3 Fold, the “Fold, Arylsulfatase A” value [6] was 0.3 Fold and the “Fold, B61” value [6] was 2.3 Fold. The “Fold, Bcl-3” value [6] was 2.5 Fold, the “Fold, C11 protein” value [6] was 0.3 Fold and the “Fold, Capping protein a-subunit” value [6] was 0.3 Fold. For the same compound, the “Fold, Carbonyl reductase (Cbr1)” value [6] was 3.3 Fold, the “Fold, Chromodomain-helicase-DNA binding protein CHD-1” value [6] was 0.4 Fold and the “Fold, Cyp4a-10” value [6] was 0.3 Fold. The “Fold, Cytoskeletal β-actin” value [6] was 0.3 Fold, the “Fold, EST” value [6] was 0.4 Fold and the “Fold, FK506-binding protein (FKBP23)” value [6] was 0.2 Fold. For the same compound, the “Fold, FK506-binding protein (FKBP65)” value [6] was 0.3 Fold, the “Fold, Fatty acid transport protein (FATP)” value [6] was 1.8 Fold and the “Fold, Glucose regulated protein 78” value [6] was 0.3 Fold. For the same compound, the “Fold, Glucose-6-phosphatase” value [6] was 3.8 Fold, the “Fold, Glycerophosphate dehydrogenase” value [6] was 0.3 Fold and the “Fold, H-2 class I histocompatibility antigen” value [6] was 0.3 Fold. For the same compound, the “Fold, Inhibitory G protein of adenylate cyclase, α chain” value [6] was 0.3 Fold, the “Fold, Insulin-like growth factor binding protein 1 precursor” value [6] was 3.0 Fold and the “Fold, Kinesin-like protein (KipIp)” value [6] was 2.0 Fold. The “Fold, Lamin A” value [6] was 0.3 Fold, the “Fold, Lupus la protein homolog” value [6] was 0.3 Fold and the “Fold, Major urinary protein 2 precursor” value [6] was 3.9 Fold. The “Fold, Membrane-type matrix metalloproteinase” value [6] was 0.2 Fold, the “Fold, Mitochondrial genome” value [6] was 0.4 Fold and the “Fold, Murine vik5variant in the kinase” value [6] was 0.1 Fold. The “Fold, Myosin binding protein H (MyBP-H)” value [6] was 2.2 Fold, the “Fold, NfiB1-protein (exon 1-12)” value [6] was 0.3 Fold and the “Fold, Nuclear-encoded mitochondrial acyltransferase” value [6] was 0.2 Fold. The “Fold, PHAS-II” value [6] was 0.3 Fold, the “Fold, Protein kinase C inhibitor (mPKCl)” value [6] was 2.1 Fold and the “Fold, Protein kinase C, Θ type” value [6] was 0.3 Fold. For the same compound, the “Fold, Protein kinase ζ” value [6] was 0.5 Fold, the “Fold, Putative ATP-dependent RNA helicase PL10” value [6] was 0.3 Fold and the “Fold, Putative SH3-containing protein SH3P12” value [6] was 0.3 Fold. The “Fold, Putative transcription factor of the insulin gene” value [6] was 0.3 Fold, the “Fold, Rho-associated, coiled-coil forming protein kinase p160” value [6] was 0.2 Fold and the “Fold, Serine/threonine kinase (Akt2)” value [6] was 0.3 Fold. The “Fold, Skeletal muscle actin” value [6] was 0.3 Fold, the “Fold, Spot 14 gene” value [6] was 8.8 Fold and the “Fold, T-complex protein 1, d subunit” value [6] was 0.3 Fold. The “Fold, TGN38B” value [6] was 0.3 Fold, the “Fold, Terminal deoxynucleotidyltransferase” value [6] was 0.3 Fold and the “Fold, Thymic stromal stimulating factor” value [6] was 0.3 Fold. For the same compound, the “Fold, Ubiquitin-activating enzyme E1 X” value [6] was 0.3 Fold, the “Fold, Virus-like (VL30) retrotransposon BVL-1” value [6] was 0.3 Fold and the “Fold, ece1 (endothelin-converting enzyme)” value [6] was 0.2 Fold. For the same compound, the “Fold, α-2,3-Sialyltransferase” value [6] was 0.3 Fold, the “Fold, α-Adaptin” value [6] was 0.3 Fold and the “Fold, α-Globin” value [6] was 2.7 Fold. The “Fold, β-2 Adrenergic receptor” value [6] was 3.4 Fold, the “Fold, β-Galactoside α 2,6-sialyltransferase” value [6] was 0.3 Fold and the “Fold, β-Globin” value [6] was 2.3 Fold.
In the case of `Cc1cc(OCP(=O)(O)O)cc(C)c1Cc1ccc(O)c(C(C)C)c1` [Compound 7], the “Triglycerides (mg/g liver)” value (liver triglycerides [1]) was 1.3 ± 0.4 mg/g liver, the “Effect on liver” value (liver triglycerides [1]) was “significant decrease in hepatic triglyceride content” and the “Body Weight (% change from start)” value [2] was 9.1 ± 1.5 % change from start. For the same compound, the “Effect on body weight, in words” value [2] was “did not decrease body weight” and the “Liver mGPDH activity (% vehicle)” value (mGPDH) was 399 ± 40 % vehicle.
With `CC(C)c1cc(Oc2c(Cl)cc(CC(=O)O)cc2Cl)ccc1O` [Compound 18] the “Effect on hepatic steatosis (visual, H&E), in words” value (hepatic steatosis [7]) was “visually decreased hepatic steatosis compared to control”.
For `O=P(O)(O)Cc1cc(I)c(Oc2ccc(O)c(I)c2)c(I)c1` [Compound 6], the “Triglycerides (mg/g liver)” value (liver triglycerides [1]) was 1.3 ± 0.2 mg/g liver, the “Effect on liver” value (liver triglycerides [1]) was “significant decrease in hepatic triglyceride content” and the “Body Weight (% change from start)” value [2] was 8.7 ± 0.8 % change from start. The “Effect on body weight, in words” value [2] was “did not decrease body weight” and the “Liver mGPDH activity (% vehicle)” value (mGPDH) was 291 ± 37 % vehicle.
In the case of `N[C@@H](Cc1cc(I)c(Oc2cc(I)c(O)c(I)c2)c(I)c1)C(=O)O` [thyroxine, 3,3′,5,5′-tetraiodothyronine], the “Decrease of liver TG” value (liver TG; after one week) is given as 5 fold and the “Rebound of liver TG” value (liver TG; by the end of five weeks) is given as 4 fold.
For `O=C(O)Cc1cc(I)c(Oc2ccc(O)c(I)c2)c(I)c1` [TRIAC], the “Triglycerides (mg/g liver)” value (liver triglycerides [1]) was 1.5 ± 0.4 mg/g liver, the “Effect on liver” value (liver triglycerides [1]) was “significant decrease in hepatic triglyceride content” and the “Body Weight (% change from start)” value [2] was −1.7 ± 0.6 % change from start. The “Effect on body weight, in words” value ([2]; 1 mg/kg/day) was “decreased body weight; also recorded: loss of body weight” and the “Liver mGPDH activity (% vehicle)” value (mGPDH) was 384 ± 28 % vehicle.
For `Cc1cc(OCC(=O)O)cc(C)c1Cc1ccc(O)c(C(C)C)c1` [Compound 17], the “Triglycerides (mg/g liver)” value (liver triglycerides [1]) was 1.8 ± 0.3 mg/g liver, the “Effect on liver” value (liver triglycerides [1]) was “significant decrease in hepatic triglyceride content” and the “Body Weight (% change from start)” value [2] was −5.4 ± 1.0 % change from start. The “Effect on body weight, in words” value ([2]; 1 mg/kg/day) was “decreased body weight”, the “Effect on body weight, in words” value ([2]; listed as compound 17, 1 mg/kg/day) was “loss of body weight” and the “Liver mGPDH activity (% vehicle)” value (mGPDH) was 426 ± 45 % vehicle.
